The values that follow come from patent US10077261B2, “Imidazolin-5-one derivative useful as FASN inhibitors for the treatment of cancer” (Janssen Pharmaceutica NV, priority 2012, dated 2018).

The structures appear in SMILES notation.

The target in this test is T1, hFASN enzyme (full length) (Homo sapiens, UniProt P49327).
T1 construct: 10 μL hFASN enzyme (full length, 300 ng, purified in house); made in house
In words: Fatty Acid Synthase (FASN) inhibition scintillation proximity assay. The settings on record: for inhibition at 10 µM: read-out: Human FASN % inhibition @ 10 μM, 10 μM test compound; for IC50: read-out: Human FASN pIC50 (converted). In kind it is biochemical. An outline of the steps: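 Read-out relies on hydrophobic ³H-palmitate product, formed from ³H-acetyl-CoA and malonyl-CoA, binding streptavidin imaging beads, measured at 610±20 nm after at least 24 h. Full-length enzyme (300 ng) in phosphate buffer pH 7.5 with DTT; eight compound concentrations, 0.01–30 μM.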

T1 sequence (P49327 whole entry): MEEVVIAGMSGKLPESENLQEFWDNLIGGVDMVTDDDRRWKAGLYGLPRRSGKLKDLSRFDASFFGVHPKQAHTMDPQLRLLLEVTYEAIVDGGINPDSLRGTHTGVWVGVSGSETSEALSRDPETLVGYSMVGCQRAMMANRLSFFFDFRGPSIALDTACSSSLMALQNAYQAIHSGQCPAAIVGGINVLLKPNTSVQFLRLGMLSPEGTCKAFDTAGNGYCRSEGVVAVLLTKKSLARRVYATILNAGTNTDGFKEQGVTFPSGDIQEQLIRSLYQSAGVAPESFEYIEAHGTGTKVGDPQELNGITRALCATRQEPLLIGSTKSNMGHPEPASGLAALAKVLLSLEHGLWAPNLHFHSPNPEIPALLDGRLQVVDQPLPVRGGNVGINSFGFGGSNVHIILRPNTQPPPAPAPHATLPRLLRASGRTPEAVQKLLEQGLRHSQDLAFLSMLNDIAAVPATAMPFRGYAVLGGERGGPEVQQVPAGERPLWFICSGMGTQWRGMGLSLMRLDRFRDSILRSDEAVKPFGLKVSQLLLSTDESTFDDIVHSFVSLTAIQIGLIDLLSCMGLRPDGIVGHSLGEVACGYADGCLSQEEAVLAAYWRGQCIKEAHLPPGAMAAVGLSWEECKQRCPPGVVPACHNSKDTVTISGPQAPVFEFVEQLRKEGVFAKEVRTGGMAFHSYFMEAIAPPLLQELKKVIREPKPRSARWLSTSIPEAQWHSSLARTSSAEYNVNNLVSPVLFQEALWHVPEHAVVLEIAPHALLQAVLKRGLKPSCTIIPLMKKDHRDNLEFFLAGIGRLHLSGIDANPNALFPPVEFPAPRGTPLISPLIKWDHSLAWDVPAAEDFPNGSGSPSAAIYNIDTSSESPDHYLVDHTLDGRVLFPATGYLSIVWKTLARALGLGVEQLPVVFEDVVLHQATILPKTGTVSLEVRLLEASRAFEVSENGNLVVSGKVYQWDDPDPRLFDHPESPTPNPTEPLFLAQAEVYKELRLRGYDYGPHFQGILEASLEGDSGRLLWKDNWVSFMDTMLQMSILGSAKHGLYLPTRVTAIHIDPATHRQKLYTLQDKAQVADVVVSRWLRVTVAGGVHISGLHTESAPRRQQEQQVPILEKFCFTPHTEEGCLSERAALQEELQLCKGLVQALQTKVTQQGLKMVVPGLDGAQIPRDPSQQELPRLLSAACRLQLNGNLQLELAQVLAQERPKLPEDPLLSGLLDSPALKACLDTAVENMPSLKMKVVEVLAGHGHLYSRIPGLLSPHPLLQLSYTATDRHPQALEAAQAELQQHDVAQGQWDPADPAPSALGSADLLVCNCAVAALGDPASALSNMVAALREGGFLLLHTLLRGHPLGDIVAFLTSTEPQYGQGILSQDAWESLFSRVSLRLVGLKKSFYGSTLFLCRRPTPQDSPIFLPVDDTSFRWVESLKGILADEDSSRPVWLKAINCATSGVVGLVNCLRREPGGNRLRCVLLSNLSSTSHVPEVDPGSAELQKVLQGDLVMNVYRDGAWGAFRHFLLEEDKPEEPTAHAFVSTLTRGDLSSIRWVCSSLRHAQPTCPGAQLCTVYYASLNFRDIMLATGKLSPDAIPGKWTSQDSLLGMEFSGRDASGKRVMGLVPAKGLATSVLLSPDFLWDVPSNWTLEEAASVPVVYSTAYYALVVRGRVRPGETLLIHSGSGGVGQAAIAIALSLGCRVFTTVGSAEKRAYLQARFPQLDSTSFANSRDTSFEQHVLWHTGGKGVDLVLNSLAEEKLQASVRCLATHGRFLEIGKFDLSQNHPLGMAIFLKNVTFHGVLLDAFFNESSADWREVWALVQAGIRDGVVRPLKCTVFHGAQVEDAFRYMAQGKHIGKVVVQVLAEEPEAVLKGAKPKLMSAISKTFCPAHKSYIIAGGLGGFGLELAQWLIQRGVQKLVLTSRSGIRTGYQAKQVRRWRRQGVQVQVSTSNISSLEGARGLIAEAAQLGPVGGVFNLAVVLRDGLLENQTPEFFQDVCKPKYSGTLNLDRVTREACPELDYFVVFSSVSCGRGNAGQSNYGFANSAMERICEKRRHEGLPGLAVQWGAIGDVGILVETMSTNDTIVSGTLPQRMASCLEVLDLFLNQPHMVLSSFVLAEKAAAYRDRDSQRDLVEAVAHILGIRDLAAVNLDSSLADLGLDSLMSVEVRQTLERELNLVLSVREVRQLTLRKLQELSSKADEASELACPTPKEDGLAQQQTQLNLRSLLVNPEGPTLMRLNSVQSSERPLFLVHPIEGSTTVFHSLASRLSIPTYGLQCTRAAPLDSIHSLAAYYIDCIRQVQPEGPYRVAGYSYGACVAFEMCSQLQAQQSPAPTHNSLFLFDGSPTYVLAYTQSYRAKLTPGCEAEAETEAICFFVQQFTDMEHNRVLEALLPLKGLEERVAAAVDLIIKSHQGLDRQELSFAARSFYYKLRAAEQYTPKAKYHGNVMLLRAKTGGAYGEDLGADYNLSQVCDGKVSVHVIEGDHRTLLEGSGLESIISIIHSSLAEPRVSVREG

As to `O=C(C1CC1)N1CC(CN2C(=O)C3(CC3)N=C2c2ccc(-c3ccc4[nH]ncc4c3)c(F)c2)C1` [compound 451, 6-{[1-(Cyclopropylcarbonyl)azetidin-3-yl]methyl}-5-[3-fluoro-4-(1H-indazol-5-yl)phenyl]-4,6-diazaspiro[2.4]hept-4-en-7-one], the inhibition at 10 µM came out at 82% and the IC50 is 1.26 µM.

Take `CC(C)n1ncc2cc(-c3ccc(C4=NC5(CC5)C(=O)N4C[C@@H]4CCN(C(=O)C5CC5)C4)cc3)ccc21` [compound 454, 6-{[(3R)-1-(Cyclopropylcarbonyl)pyrrolidin-3-yl]methyl}-5-{4-[1-(1-methylethyl)-1H-indazol-5-yl]phenyl}-4,6-diazaspiro[2.4]hept-4-en-7-one]: the inhibition at 10 µM was found to be 53% and the IC50 was roughly 6.03 µM.

`O=C(C1CC1)N1CC[C@@H](CN2C(=O)C3(CC3)N=C2c2ccc(-c3ccc4c(c3)OCCO4)cc2)C1` [compound 456, 6-{[(3R)-1-(Cycloprop-ylcarbonyl)pyrrolidin-3-yl]methyl}-5-[4-(2,3-dihydro-1,4-benzodioxin-6-yl)phenyl]-4,6-diazaspiro[2.4]hept-4-en-7-one]: the inhibition at 10 µM was 65% and the IC50 is 6.92 µM.

On to `O=C(C1CC1)N1CC[C@@H](CN2C(=O)C3(CC3)N=C2c2cnc(-c3ccc4occc4c3)nc2)C1` [compound 458, 5-[2-(1-Benzofuran-5-yl)pyrimidin-5-yl]-6-{[(3R)-1-(cyclopropylcarbonyl)pyrrolidin-3-yl]methyl}0-4,6-diazaspiro[2.4]hept-4-en-7-one], for which the inhibition at 10 µM came out at 48% and the IC50 was 8.13 µM.

On to `Cn1ncc2cc(-c3ncc(C4=NC5(CC5)C(=O)N4C[C@@H]4CCN(C(=O)C5CC5)C4)cn3)ccc21` [compound 459, 6-{[(3R)-1-(Cyclopropylcarbonyl)pyrrolidin-3-yl]methyl}-5-[2-(1-methyl-1H-indazol-5-yl)pyrimidin-5-yl]-4,6-diazaspiro[2.4]hept-4-en-7-one], for which the inhibition at 10 µM amounted to 43%. Besides, where the note is “hFASN enzyme, full length, "~" means standard error of the pIC50 is larger than 0.5”, the “Human FASN pIC50” value was found to be 5.06.

On to `Cc1cc(C2=NC3(CC3)C(=O)N2CC2CN(C(=O)C3CC3)C2)ccc1-c1ccc2oc(C#N)cc2c1` [compound 460, 5-[4-(6-{[1-(Cyclopropylcarbonyl)azetidin-3-yl]methyl}-7-oxo-4,6-diazaspiro[2.4]hept-4-en-5-yl)-2-methylphenyl]-1-benzofuran-2-carbonitrile], for which the inhibition at 10 µM stood at 63% and the IC50 is 3.09 µM.

Consider `O=C(C1CC1)N1CC[C@@H](CN2C(=O)C3(CC3)N=C2c2ccc(-c3ccc4c(c3)CCCO4)cc2)C1` [compound 464, 6-{[(3R)-1-(Cyclopropylcarbonyl)pyrrolidin-3-yl]methyl}-5-[4-(3,4-dihydro-2H-chromen-6-yl)phenyl]-4,6-diazaspiro[2.4]hept-4-en-7-one], for which the inhibition at 10 µM amounted to 66% and the IC50 is 4.07 µM.

For the compound `N#Cc1cc2cc(-c3ccc(C4=NC5(CC5)C(=O)N4CC4CN(C(=O)C5CC5)C4)cc3F)ccc2o1` [compound 477, 5-[4-(6-{[1-(Cyclopropylcarbonyl)azetidin-3-yl]methyl}-7-oxo-4,6-diazaspiro[2.4]hept-4-en-5-yl)-2-fluorophenyl]-1-benzofu8ran-2-carbonitrile], the inhibition at 10 µM was 67% and the IC50 was 3.09 µM.

For `O=C(C1CC1)N1CC[C@@H](CN2C(=O)C3(CC3)N=C2c2ccc(-c3cc4cc(Br)ccc4cn3)cc2)C1` [compound 478, 5-[4-(6-Bromoisoquinolin-3-yl)phenyl]-6-{[(3R)-1-(cyclopropylcarbonyl)pyrrolidin-3-yl]methyl}-4,6-diazaspiro[2.4]hept-4-en-7-one], the inhibition at 10 µM stood at 92% and the IC50 was 1.38 µM.

In the case of `O=C(C1CC1)N1CC(CN2C(=O)C3(CC3)N=C2c2ccc(-c3ccc4nccnc4c3)cc2)C1` [compound 481, 6-{[1-(Cyclopropylcarbonyl)azetidin-3-yl]methyl}-5-(4-quinoxalin-6-ylphenyl)-4,6-diazaspiro[2.4]hept-4-en-7-one], the inhibition at 10 µM was determined as 68% and the IC50 was 2.19 µM.

Take `O=C(C1CC1)N1CC(CN2C(=O)C3(CC3)N=C2c2ccc(-c3ccc(N4CCCC4)nc3)cc2)C1` [compound 482, 6-{[1-(Cyclopropylcarbonyl)azetidin-3-yl]methyl}-5-[4-(6-pyrrolidin-1-ylpyridin-3-yl)phenyl]-4,6-diazaspiro[2.4]hept-4-en-7-one]: the inhibition at 10 µM came to 76% and the IC50 is 1.32 µM.

Take `Cn1nc2ccc(-c3ccc(C4=NC5(CC5)C(=O)N4C[C@@H]4CCN(C(=O)C5CC5)C4)cc3)cc2c1CO` [compound 487, 6-{[(3R)-1-(Cyclopropylcarbonyl)pyrrolidin-3-yl]methyl}-5-{4-[3-(hydroxymethyl)-2-methyl-2H-indazol-5-yl]phenyl}-4,6-diazaspiro[2.4]hept-4-en-7-one]: the inhibition at 10 µM is 81% and the IC50 was 1.17 µM.

`Cc1cc(-c2ccc(C3=NC4(CC4)C(=O)N3CC3CN(C(=O)C4CC4)C3)cc2)cc2cnn(C)c12` [compound 492, 6-{[1-(Cyclopropylcarbonyl)azetidin-3-yl]methyl}-5-[4-(1,7-dimethyl-1H-indazol-5-yl)phenyl]-4,6-dazaspiro[2.4]hept-4-en-7-one]: the inhibition at 10 µM came out at 77% and the IC50 is 1 µM.

Regarding `Cn1c(=O)c2cc(-c3ccc(C4=NC5(CC5)C(=O)N4C[C@@H]4CCN(C(=O)C5CC5)C4)cc3)ccc2n1C` [compound 500, 5-[4-(6-{[(3R)-1-(Cyclopropylcarbonyl)pyrrolidin-3-yl]methyl}-7-oxo-4,6-diazaspiro[2.4]hept-4-rn-5-yl)phenyl]-1,2-dimethyl-1,2-dihydro-3H-indazol-3-one], the inhibition at 10 µM was 74% and the IC50 is roughly 2.75 µM.

As to `O=C(C1CC1)N1CC(CN2C(=O)C3(CC3)N=C2c2ccc(-c3ccc4nn(CC5CC5)cc4c3)cc2)C1` [compound 501, 6-{[1-(Cyclopropylcarbonyl)azetidin-3-yl]methyl}-5-{4-[2-(cyclopropylmethyl)-2H-indazol-5-yl]phenyl}-4,6-diazaspiro[2.4]hept-4-en-7-one], the inhibition at 10 µM stood at 52% and the IC50 was 8.32 µM.

For `Cn1ncc2cc(-c3ccc(C4=NC5(CC5)C(=O)N4CC4CN(C(=O)C5CC5)C4)cc3)cnc21` [compound 503, 6-{[1-(Cyclopropylcarbonyl)azetidin-3-yl]methyl}-5-[4-(1-methyl-1H-pyrazolo[3,4-b]pyridin-5-yl)phenyl]-4,6-diazaspiro[2.4]hept-4-en-7-one], the inhibition at 10 µM stood at 58% and the IC50 is 5.75 µM.

As to `O=C(C1CC1)N1CC(CN2C(=O)C3(CC3)N=C2c2ccc(-c3ccc4oncc4c3)cc2)C1` [compound 504, 5-[4-(1,2-Benzisoxazol-5-yl)phenyl]-6-{[1-(cyclopropylcarbonyl)azetidin-3-yl]methyl}-4,6-diazaspiro[2.4]hept-4-en-7-one], the inhibition at 10 µM was 42% and the IC50 is 8.51 µM.

With `CCn1ncc2cc(-c3ccc(C4=NC5(CC5)C(=O)N4CC4CN(C(=O)C5CC5)C4)cc3)ccc21` [compound 505, 6-{[1-(Cyclopropylcarbonyl)azetidin-3-yl]methyl}-5-[4-(1-ethyl-1H-indazol-5-yl)phenyl]-4,6-diazaspiro[2.4]hept-4-en-7-one], the inhibition at 10 µM is 80% and the IC50 was 1.17 µM.

For `CCn1cc2cc(-c3ccc(C4=NC5(CC5)C(=O)N4CC4CN(C(=O)C5CC5)C4)cc3)ccc2n1` [compound 506, 6-{[1-(Cyclopropylcarbonyl)azetidin-3-yl]methyl}-5-[4-(2-ethyl-2H-indazol-5-yl)phenyl]-4,6-diazaspiro[2.4]hept-4-en-7-one], the inhibition at 10 µM was 61% and the IC50 is 3.39 µM.

Consider `CC(C)n1ccc2cc(-c3ccc(C4=NC5(CC5)C(=O)N4CC4CN(C(=O)C5CC5)C4)cc3)ccc21` [compound 508, 6-{[1-(Cyclopropylcarbonyl)azetidin-3-yl]methyl}-5-{4-[1-(1-methylethyl)-1H-indol-5-yl]phenyl}-4,6-diazaspiro[2.4]hept-4-en-7-one], for which the inhibition at 10 µM came to 74% and the IC50 is 2.88 µM.

For `O=C(C1CC1)N1CC(CN2C(=O)C3(CC3)N=C2c2ccc(-c3ccc(-n4ccnc4)nc3)cc2)C1` [compound 509, 6-{[1-(Cyclopropylcarbonyl)azetidin-3-yl]methyl}-5-{4-[6-(1H-imidazol-1-yl)pyridin-3-yl]phenyl}-4,6-diazaspiro[2.4]hept-4-en-7-one], the inhibition at 10 µM is 69% and the IC50 was 2 µM.

Turning to `Cc1ccc2ccc(-c3ccc(C4=NC5(CC5)C(=O)N4CC4CN(C(=O)C5CC5)C4)cc3)cc2n1` [compound 513, 6-{[1-(Cyclopropylcarbonyl)azetidin-3-yl]methyl}-5-[4-(2-methylquinolin-7-yl)phenyl]-4,6-diazaspiro[2.4]hept-4-en-7-one], the inhibition at 10 µM was found to be 85% and the IC50 was 1.23 µM.

Take `Cn1nccc1-c1ccc(-c2ccc(C3=NC4(CC4)C(=O)N3CC3CN(C(=O)C4CC4)C3)cc2)cc1` [compound 514, 6-{[1-(Cyclopropylcarbonyl)azetidin-3-yl]methyl}-5-[4′-(1-methyl-1H-pyrazol-5-yl)biphenyl-4-yl]-4,6-diazaspiro[2.4]hept-4-en-7-one]: the inhibition at 10 µM came to 56% and the IC50 was 7.41 µM.

On to `CC(C)n1cc(-c2ccc(-c3ccc(C4=NC5(CC5)C(=O)N4CC4CN(C(=O)C5CC5)C4)cc3)cn2)cn1` [compound 516, 6-{[1-(Cyclopropylcarbonyl)azetidin-3-yl]methyl}-5-(4-{6-[1-(1-methylethyl)-1H-pyrazol-4-yl]pyridin-3-yl}phenyl)-4,6-diazaspiro[2.4]hept-4-en-7-one], for which the inhibition at 10 µM amounted to 83% and the IC50 is 1.17 µM.
